The values that follow are results of earlier work, collected in paper PMC11091968, “Degradation of the α-Carboxyl Terminus 11 Peptide: In Vivo and Ex Vivo Impacts of Time, Temperature, Inhibitors, and Gender in Rat” (ACS Pharmacology & Translational Science, 2024).

In data set [1] the target is papain. Conditions: against papain; 8 (Table S4); cited from earlier work. The text has this:
(§1) page 5: S-5 Table S4. Protease and phosphatase inhibitor cocktail and their major targets. Abbreviations: AEBSF: 4-(2-aminoethyl) benzenesulfonyl fluoride hydrochloride; ATPase: adenosine 5′ -triphosphatase; E-64: L-trans-3-carboxyoxiran-2-carbonyl-L-leucylagmatine; IC 50: half maximal inhibitory concentration;; Ki: inhibitory constant; MW: molecular weight; N/A: not applicable; PP1 or 2A: protein ph osphatase 1 or 2A; PTP: protein tyrosine phosphatase; K293: human embryonic kidney cell line; HS596: human HS683 glioma cell line; SKN695: human SK-N-SH neuroblastoma cell line. Ingredient MW (Da ...

The subject of data set [2] is HS596 cells. The conditions noted are these: tested on HS596 cells (human HS683 glioma cell line); ref 1-3 (Table S4); cited from earlier work.
Source text: as §1

Data set [3] relates to SKN695 cells. The conditions noted are these: tested on SKN695 cells (human SK-N-SH neuroblastoma cell line); ref 1-3 (Table S4); cited from earlier work.
Source text: as §1

Data set [4] concerns K293 cells. Conditions: tested on K293 cells (human embryonic kidney cell line); ref 1-3 (Table S4); cited from earlier work.
Source text: as §1

For data set [5], the system named is serine/threonine protein phosphatases. Conditions: against serine/threonine protein phosphatases; 14 (Table S4); cited from earlier work.
Source text: as §1

Data set [6] has as its system serine/threonine protein phosphatases 2A. The conditions noted are these: against serine/threonine protein phosphatases 2A; 14 (Table S4); cited from earlier work.
Source text: as §1

For data set [7], the system named is phosphatidylserine. Conditions: cited from earlier work.
Source text: as §1

Data set [8] deals with lysosomal and prostatic acid phosphatases. Conditions: against lysosomal and prostatic acid phosphatases; 21 (Table S4); cited from earlier work.
Source text: as §1

The target of data set [9] is trypsin. The conditions noted are these: against trypsin; 10 (Table S4); cited from earlier work.
Source text: as §1

Data set [10] deals with plasmin. The conditions noted are these: against plasmin; 10 (Table S4); cited from earlier work.
Source text: as §1

Data set [11] deals with Aspartic proteases. Conditions: enzyme not given; 11 (Table S4); cited from earlier work.
Source text: as §1

The test system of data set [12] is human cathepsin D. Also noted: method as in earlier work. Conditions: against human cathepsin D; 11 (Table S4); cited from earlier work. An excerpt: page 5: S-5 Table S4. Protease and phosphatase inhibitor cocktail and their major targets. Abbreviations: AEBSF: 4-(2-aminoethyl) benzenesulfonyl fluoride hydrochloride; ATPase: adenosine 5′ -triphosphatase; E-64: L-trans-3-carboxyoxiran-2-carbonyl-L-leucylagmatine; IC 50: half maximal inhibitory concentration;; Ki: inhibitory constant; MW: molecular weight; N/A: not applicable; PP1 or 2A: protein ph osphatase 1 or 2A; PTP: protein tyrosine phosphatase; K293: human embryonic kidney cell line; HS596: human HS683 glioma cell line; SKN695: human SK-N-SH neuroblastoma cell line.

Structures can show the parent of a compound that is named as a salt.

As usually defined, the Ki is the dissociation constant of the complex between target and ligand, obtained from inhibition or displacement. `CC(C)C[C@H](NC(=O)[C@H]1O[C@@H]1C(=O)O)C(=O)NCCCCN=C(N)N` (relative stereo) [E-64, L-trans-3-carboxyoxiran-2-carbonyl-L-leucylagmatine]: the Ki in data set [1] was 9 nM.

In general, IC50 refers to the concentration needed to halve the response being measured. Take `NCCc1ccc(S(=O)(=O)F)cc1` [AEBSF, 4-(2-aminoethyl) benzenesulfonyl fluoride hydrochloride]: the IC50 in data set [2] was 300 µM; in [3], 300 µM; in [4] it was 1 mM.

Take `C[C@@]12C(=O)OC(=O)[C@]1(C)[C@H]1CC[C@@H]2O1` [Cantharidin]: the IC50 is 470 nM in [5] and 40 nM in data set [6].

Turning to `[Na+].[Na+].[Na+].[O]=[V]([O-])([O-])[O-]` [Sodium orthovanadate], the IC50 in data set [7] was 100 µM.

In the case of `O=C([O-])C(O)C(O)C(=O)[O-].[Na+].[Na+]` (stereo not drawn) [Sodium tartrate], the Ki in data set [8] is 1000 nM.

Regarding Leupeptin, the values for the Ki in data set [9] and in data set [10] were 3.5 nM and 3.4 nM, respectively.

Pepstatin A: the Ki in [11] was 0.01 nM. Further, in data set [12], the IC50 is 21 nM.
